Assay results from patent US6800297B2, “Porous COX-2 inhibitor matrices and methods of manufacture thereof” (Acusphere, Inc., priority 2000, dated 2004).

Experiment: In vitro dissolution of rofecoxib in T80/PBS
Assay type: physicochemical
Conditions: after 1 hour; PBS containing 0.08% Tween 80, 200 mL; FIG. 2, FIG. 3
Procedure: Rofecoxib containing materials (either tablets, or bulk rofecoxib powder, or porous rofecoxib matrix powder) containing 20-31 mg of rofecoxib were added to 200 mL of 5% dextrose at room temperature in a 600 mL beaker. For bulk rofecoxib powder and porous rofecoxib matrix powder the resulting suspension was stirred for 5 minutes. For tablets (either marketed rofecoxib tablets (VIOXX®) or porous rofecoxib matrix tablet) the resulting suspension was stirred for 3-4 minutes beyond the time required for complete tablet disintegration. A sample of the suspension (containing 0.050-0.077 mg of rofecoxib) was then transferred to the dissolution vessel.
Dissolution studies for rofecoxib were conducted in PBS (phosphate buffered saline) containing 0.08% Tween 80 (T80/PBS). The dissolution vessel was a 600 mL beaker containing 200 mL of T80/PBS, and was stirred Samples were removed via pipet and centrifuged for 5 minutes at 10,000 rpm. Samples were analyzed by HPLC for rofecoxib. Control samples (for total rofecoxib concentration in the suspension vessel) were removed via pipet, and dissolved in acetonitrile, and the resulting solutions analyzed by HPLC for rofecoxib. […]

percent dissolved (relative to total rofecoxib concentration in the suspension vessel): 41%
Compound: CS(=O)(=O)c1ccc(C2=C(c3ccccc3)C(=O)OC2)cc1 [rofecoxib, 4-[4-(methylsulfonyl)phenyl]-3-phenyl-2(5H)-furanone]
